Laboratory results from US20200354331A1, “ICARIIN DERIVATIVES” (H. LEE MOFFITT CANCER CENTER AND RESEARCH INSTITUTE, INC., priority 2014, published 2020).
pIC50: −log10 of the molar value.

Columns and labels:
Assay type in all cases: cell-based
[1] = tested on: K562; assay: IC50 of ICT in cell lines; conditions: Homo sapiens
[2] = tested on: Raji; assay: IC50 of ICT in cell lines; conditions: Homo sapiens
[3] = tested on: B16; assay: Apoptosis rates of ICT in cell lines
[4] = tested on: Bone marrow; assay: Apoptosis rates of ICT in cell lines

COc1ccc(-c2oc3c(CCC(C)(C)O)c(O)cc(O)c3c(=O)c2O)cc1 [ICT, 3,5,7-trihydroxy-4′-methoxy-8-(3-hydroxy-3-methylbutyl)-flavone]
pIC50 [1]: 4.30 | pIC50 [2]: 4.59 | Apoptosis rates ([3]; B16, 5 μM): 2.5% | Apoptosis rates ([3]; B16, 10 μM): 3.8% | Apoptosis rates ([3]; B16, 20 μM): 3.5% | Apoptosis rates ([4]; 5 μM): 2.7% | Apoptosis rates ([4]; 10 μM): 4.3% | Apoptosis rates ([4]; 20 μM): 4.8%
